Results on 27 molecules are retold here after US20050197350A1, “Novel quinoline, tetrahydroquinazoline, and pyrimidine derivatives and methods of treatment related to the use thereof” (TAISHO PHARMACEUTICAL CO., LTD., priority 2003, published 2005).

Structures are written as SMILES.

One experiment relates to MCH receptors. Nature of the experiment: MCH receptor activity class (method not given). To be noted: MCH receptor activity class 1-3 (percent of control at 10^-7 M or IC50).
Turning to `COc1cc(NC(=S)N[C@H]2CC[C@@H](Nc3cc(N(C)C)c4ccccc4n3)CC2)c(OC)cc1Cl` [compound 2308], the class is given as 3 (Class 3 The value of percent of control at 10^−7 M was more than 60% or the value of IC50 was more than 200 nM.).

The same experiment, now with this note: MCH receptor; class by percent of control at 10^-7 M or IC50.
As for `CN(C)c1cc(N[C@H]2CC[C@@H](CNC(=O)c3cccc(Cl)c3F)CC2)nc2ccccc12` [compound 186], the class is given as 3 (Class 3 The value of percent of control at 10^−7 M was more than 60% or the value of IC50 was more than 200 nM.). As for `CN(C)c1nc(N[C@H]2CC[C@@H](NC(=O)Nc3ccsc3)CC2)nc2c1CCCC2` [compound 1917], the class is listed as 3 (Class 3 The value of percent of control at 10^−7 M was more than 60% or the value of IC50 was more than 200 nM.). Still for that read-out and setting: as for `CN(C)c1cc(N[C@H]2CC[C@@H](NC(=O)C3CCCCC3)CC2)nc2ccccc12` [compound 97], the figure is 3 (Class 3 The value of percent of control at 10^−7 M was more than 60% or the value of IC50 was more than 200 nM.). As for `CN(C)c1nc(N[C@H]2CC[C@@H](NC(=S)NCc3ccccc3)CC2)nc2c1CCCC2` [compound 1928], the class is given as 3 (Class 3 The value of percent of control at 10^−7 M was more than 60% or the value of IC50 was more than 200 nM.). Same read-out and setting: the value for `COc1ccc(CNC(=S)N[C@H]2CC[C@@H](Nc3nc4c(c(N(C)C)n3)CCCC4)CC2)cc1` [compound 2018] was 3 (Class 3 The value of percent of control at 10^−7 M was more than 60% or the value of IC50 was more than 200 nM.).

The experiment is the same for the next values; noted with them: activity class 1-3: percent of control at 10^-7 M or IC50.
Take `CN(C)c1nc(N[C@H]2CC[C@@H](NC(=O)Oc3cccc(C(F)(F)F)c3)CC2)nc2c1CCCC2` [compound 1582]: the class is listed as 3 (Class 3 The value of percent of control at 10^−7 M was more than 60% or the value of IC50 was more than 200 nM.).

Still in this experiment, the particulars now being: activity class per percent of control at 10^-7 M or IC50.
For `CN(C)c1cc(N[C@H]2CC[C@@H](CNCc3cccc(Br)c3)CC2)nc2ccccc12` [compound 1143], the class is 3 (Class 3 The value of percent of control at 10^−7 M was more than 60% or the value of IC50 was more than 200 nM.). Consider `CC(C(=O)N[C@H]1CC[C@@H](Nc2nc3c(c(N(C)C)n2)CCCC3)CC1)c1ccc(C(=O)c2cccs2)cc1` (relative stereo) [compound 1020], for which the class is recorded as 2 (Class 2: The value of percent of control at 10^−7 M was from 40% to 60% or the value of IC′50 was from 50 nM to 200 nM.). Still for that read-out and setting: as for `CN(C)c1nc(N[C@H]2CC[C@@H](NC(=O)c3ccccc3COc3ccccc3)CC2)nc2c1CCCC2` [compound 1036], the figure is 3 (Class 3 The value of percent of control at 10^−7 M was more than 60% or the value of IC50 was more than 200 nM.).

Consider `CN(C)c1nc(N[C@H]2CC[C@@H](NC(=O)c3cccc(Oc4ccccc4)c3)CC2)nc2c1CCCC2` [compound 1007], for which the class was 1 (Class 1: The value of percent of control at 10^−7 M was less than 40% or the value of IC50 was less than 50 nM.).

The experiment is the same for the next values; noted with them: class 1-3 by percent of control at 10^-7 M or IC50.
For the molecule `Cc1ccccc1C(=O)NC[C@H]1CC[C@@H](Nc2nccc(N(C)C)n2)CC1` [compound 441], the class was 3 (Class 3 The value of percent of control at 10^−7 M was more than 60% or the value of IC50 was more than 200 nM.).

`CN(C)c1nc(N[C@H]2CC[C@@H](NC(=O)c3cccc(Cl)c3F)CC2)nc2c1CCCC2` [compound 495]: the class is on record as 3 (Class 3 The value of percent of control at 10^−7 M was more than 60% or the value of IC50 was more than 200 nM.). Still for that read-out and setting: as for `CN(C)c1nc(N[C@H]2CC[C@@H](NC(=O)c3ccc([N+](=O)[O-])o3)CC2)nc2c1CCCC2` [compound 547], the figure is 1 (Class 1: The value of percent of control at 10^−7 M was less than 40% or the value of IC50 was less than 50 nM.).

The experiment is the same for the next values; noted with them: class by percent of control at 10^-7 M or IC50.
For the molecule `CN(C)c1ccnc(N[C@H]2CC[C@@H](NC(=O)c3ccc(Cl)c(Cl)c3)CC2)n1` [compound 249], the class is 1 (Class 1: The value of percent of control at 10^−7 M was less than 40% or the value of IC50 was less than 50 nM.).

`CC(C(=O)N[C@H]1CC[C@@H](Nc2nccc(N(C)C)n2)CC1)c1ccc(-c2ccccc2)c(F)c1` (relative stereo) [compound 847]: the class is on record as 3 (Class 3 The value of percent of control at 10^−7 M was more than 60% or the value of IC50 was more than 200 nM.). On the same count and under the same terms, as for `CN(C)c1ccnc(N[C@H]2CC[C@@H](NC(=O)c3cccnc3Oc3ccccc3)CC2)n1` [compound 353, N-(cis-4-{[4-(dimethylamino)pyrimidin-2-yl]amino}cyclohexyl)-2-phenoxynicotinamide], the figure is 2 (Class 2: The value of percent of control at 10^−7 M was from 40% to 60% or the value of IC′50 was from 50 nM to 200 nM.).

For the molecule `Cc1ccc(C(=O)NC[C@H]2CC[C@@H](Nc3nc4c(c(N(C)C)n3)CCCC4)CC2)cc1[N+](=O)[O-]` [compound 605], the class is recorded as 3 (Class 3 The value of percent of control at 10^−7 M was more than 60% or the value of IC50 was more than 200 nM.). Still for that read-out and setting: as for `COc1ccc(NC(=O)N[C@H]2CC[C@@H](Nc3cc(N(C)C)c4ccccc4n3)CC2)c(OC)c1` [compound 2141], the figure is 3 (Class 3 The value of percent of control at 10^−7 M was more than 60% or the value of IC50 was more than 200 nM.). Still for that read-out and setting: as for `CCSC(C(=O)N[C@H]1CC[C@@H](Nc2cc(N(C)C)c3ccccc3n2)CC1)(c1ccccc1)c1ccccc1` [compound 734], the figure is 3 (Class 3 The value of percent of control at 10^−7 M was more than 60% or the value of IC50 was more than 200 nM.); as for `CN(C)c1cc(N[C@H]2CC[C@@H](CNCc3ccc(OCc4ccc(Br)cc4)cc3)CC2)nc2ccccc12` [compound 1203], 3 (Class 3 The value of percent of control at 10^−7 M was more than 60% or the value of IC50 was more than 200 nM.). Still for that read-out and setting: the value for `CN(C)c1cc(N[C@H]2CC[C@@H](NC(=O)c3ccc(-c4cccc([N+](=O)[O-])c4)o3)CC2)nc2ccccc12` [compound 763, N-(cis-4-{[4-(dimethylamino)quinolin-2-yl]amino}cyclohexyl)-5-(3-nitrophenyl)-2-furamide] was 1 (Class 1: The value of percent of control at 10^−7 M was less than 40% or the value of IC50 was less than 50 nM.); that for `CN(C)c1ccnc(N[C@H]2CC[C@@H](NC(=O)c3ccc(-c4cccc([N+](=O)[O-])c4)o3)CC2)n1` [compound 902, N-(cis-4-{[4-(dimethylamino)pyrimidin-2-yl]amino}cyclohexyl)-5-(3-nitrophenyl)-2-furamide] was 2 (Class 2: The value of percent of control at 10^−7 M was from 40% to 60% or the value of IC′50 was from 50 nM to 200 nM.); that for `CN(C)c1cc(N[C@H]2CC[C@@H](CNC(=O)c3c(F)cccc3C(F)(F)F)CC2)nc2ccccc12` [compound 230] was 3 (Class 3 The value of percent of control at 10^−7 M was more than 60% or the value of IC50 was more than 200 nM.). With `CN(C)c1cc(N[C@H]2CC[C@@H](NC(=O)c3cc(Cl)ccc3O)CC2)nc2ccccc12` [compound 780, 5-chloro-N-(cis-4-{[4-(dimethylamino)quinolin-2-yl]amino}cyclohexyl)-2-hydroxybenzamide], the class was 2 (Class 2: The value of percent of control at 10^−7 M was from 40% to 60% or the value of IC′50 was from 50 nM to 200 nM.). As for `COC(=O)c1ccccc1Sc1nc2sccn2c1CN[C@H]1CC[C@@H](Nc2nccc(N(C)C)n2)CC1` [compound 1237], the class is recorded as 3 (Class 3 The value of percent of control at 10^−7 M was more than 60% or the value of IC50 was more than 200 nM.).

The experiment is the same for the next values; noted with them: class by percent of control at 10^−7 M or IC50.
`Cc1nc(N[C@H]2CC[C@@H](NC(=O)c3nccnc3N)CC2)nc(N(C)C)c1C` [compound 2833]: the class was 2 (Class 2: The value of percent of control at 10^−7 M was from 40% to 60% or the value of IC′50 was from 50 nM to 200 nM.).
